Laboratory results from patent publication US20230416261A1, “ETHANEDIAMINE-HETEROCYCLE DERIVATIVES AS INHIBITORS OF PROTEIN ARGININE METHYLTRANSFERASES” (Board of Regents, The University of Texas System, priority 2021, published 2023).

How the values were obtained:
PRMT1 [1] = molecular target: T1, PRMT1 (Homo sapiens, UniProt Q99873); assay: PRMT1 Enzymatic Assay (LANCE TR-FRET, methylation of histone H4 at Arg3); type: biochemical; design: purchased SignalChem P365-380G; conditions: PRMT1 1.5 nM, SAM 1 μM, biotinylated histone H4 (1-21) 25 nM; read-out: PRMT-1 IC50
T1 sequence (Q99873 whole entry): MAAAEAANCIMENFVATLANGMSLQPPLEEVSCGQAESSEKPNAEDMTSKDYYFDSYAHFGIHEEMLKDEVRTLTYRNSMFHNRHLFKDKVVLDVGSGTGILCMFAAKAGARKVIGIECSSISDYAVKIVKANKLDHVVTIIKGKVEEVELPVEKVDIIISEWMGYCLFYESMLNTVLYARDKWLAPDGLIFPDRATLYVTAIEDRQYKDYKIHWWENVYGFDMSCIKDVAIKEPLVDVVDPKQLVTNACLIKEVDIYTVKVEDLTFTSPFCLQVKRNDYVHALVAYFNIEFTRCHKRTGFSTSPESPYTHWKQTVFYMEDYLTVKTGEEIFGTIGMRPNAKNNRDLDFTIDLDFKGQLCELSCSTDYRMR
In short: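 PRMT1 (1.5 nM) preincubated 15 min with compound at room temperature, then reacted 1 h with 1 μM SAM and 25 nM biotinylated histone H4 (1-21) in 50 mM Hepes pH 8, 1 mM TCEP, 0.003% Tween-20. H4R3me detected by TR-FRET (665/620 nm ratio); IC50 from four-parameter logistic fit.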

PRMT1 [2] = molecular target: T1, PRMT1; assay: PRMT1 RKO Cellular Target Engagement Assay (In-Cell Western, asymmetric di-methyl arginine); type: cell-based; conditions: RKO cells, 48 hr compound incubation; read-out: RKO IC50 (PRMT-1 Target Engagement)
In short: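 RKO cells (1,000/well) received 1:3 serially diluted compound for 48 h at 37 °C, then were fixed, permeabilised and immunostained for asymmetric di-methyl arginine by In-Cell Western. The 800 nm antibody signal was normalised to CellTag 700 nm; IC50 from four-parameter logistic fit.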

IC50 (PRMT1 [1]) [µM]	IC50 (PRMT1 [2]) [µM]	SMILES
0.035	0.138	CNCCN(C)Cc1nn2c(c1C1CCC(COC)(COC)CC1)CN(C(=O)C1CCC1)CC2 [Example 1, (3-(4,4-Bis(methoxymethyl)cyclohexyl)-2-((methyl(2-(methylamino)ethyl)amino)methyl)-6,7-dihydropyrazolo[1,5-a]pyrazin-5(4H)-yl)(cyclobutyl)methanone]
0.016	0.311	COCC1(COC)CCC(c2c(CN(C)CCN)nn3c2CN(C(=O)C(C)(C)C)CC3)CC1 [Example 2, 1-(2-(((2-aminoethyl)(methyl)amino)methyl)-3-(4,4-bis(methoxymethyl)cyclohexyl)-6,7-dihydropyrazolo[1,5-a]pyrazin-5(4H)-yl)-2,2-dimethylpropan-1-one]
